≈ marks a conversion by molar mass, not a printed value. Where two headings read alike, the source gives them in different places.
What was measured:
[1] = system: S. pneumoniae DSM 20566 11A11, 3313A6, 704CG4B21, 82BERG72; assay: Antimicrobial assay, broth microdilution MIC, S. pneumoniae strains; format: cell-based; settings: Streptococcus pneumoniae, DSM20566
Method: (§1) The antimicrobial activities of the compounds were determined in 96-well plates (Greiner, polystyrene) by the standard NCCLS broth microdilution method (National Committee for Clinical Laboratory Standards 1993. Methods for dilution antimicrobial susceptibility tests for bacteria that grow aerobically, 3rd ed. Approved standard M7-A6. National Committee for Clinical laboratory standards, Wayne, Pa.) with slight modifications. Inocula of the microorganisms were diluted into Mueller-Hinton II (MH, cation adjusted) broth+0.002% P-80 and compared with a 0.5 McFarland standard to give appr. 10^6 colony forming units (CFU)/mL. Aliquots (50 μl) of inoculate were added to 50 μl of MH broth+0.002% P-80 containing the compounds in serial two-fold dilutions. The following microorganisms were used to determine antibiotic selectivity of the compounds: S. pneumoniae DSM 20566 11A11, 3313A6, 704CG4B21, 82BERG72; S. aureus ATCC 29213, ATCC 25923, DSM 11729, DSM 46320, S. aureus 39. Antimicrobial activities of the compounds were expressed as the minimal inhibitory concentration (MIC) in μg/mL at which no visible growth was observed after 18-20 hours of incubation at 36° C.

[2] = system: S. aureus ATCC 29213, ATCC 25923, DSM 11729, DSM 46320, S. aureus 39; assay: Antimicrobial assay, broth microdilution MIC, S. aureus strains; format: cell-based; settings: Staphylococcus aureus
Method: as §1

[3] = Plasma stability assay, CD-1 mouse plasma; format: in vitro ADME; settings: for Plasma Stability 240 min mouse/(rat) [% remain.]: CD-1 mouse plasma, 10 μM, 37° C.; for half-life at 10 μM: both sexes, CD-1, mouse, plasma
Method in brief: (§2)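 Compounds at 10 μM were incubated at 37 °C in triplicate in sodium citrate-stabilized plasma (human, or pooled mixed-gender CD-1 mouse). Samples taken at 0–240 min were acetonitrile-quenched and analyzed by HPLC/MS/MS. Remaining peak area as % of t0 gave endpoint stability (%) and half-life (min).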

[4] = Plasma stability assay, human plasma; format: in vitro ADME; settings: for Plasma Stability 240 min hum [% remain.]: human plasma, 10 μM, 37° C.; for half-life at 10 μM: human, plasma
Method in brief: as §2

[5] = Metabolic stability assay, human liver microsomes; format: in vitro ADME; settings: human microsomes, 10 μM, 37° C.; for half-life at 10 μM: both sexes, liver microsomes, 1 mg/ml protein, read-out: Metabolic Stability T ½ [min] hum
Method in brief: (§3)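 Pooled human (50 donors, mixed gender) or CD-1 mouse microsomes at 1 mg/mL protein, 10 μM compound, 100 mM potassium phosphate with NADPH-regenerating system, 37 °C in duplicate. Samples at 0, 5, 10, 20, 60 min analysed by HPLC/MS/MS; turnover as % of 0-min value and T½ (min) calculated.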

[6] = Metabolic stability assay, CD-1 mouse microsomes; format: in vitro ADME; settings: CD-1 mouse microsomes, 10 μM, 37° C.; for half-life at 10 μM: both sexes, 1 mg/ml protein, read-out: Metabolic Stability T ½ [min] mouse/(rat)
Method in brief: as §3

[7] = strain DSM 20566 (Table 32.7), read-out: MIC S. pneumoniae DSM 20566
[8] = strain ATCC 25923, read-out: MIC S. aureus ATCC 25923
[9] = strain ATCC 29213, read-out: MIC S. aureus ATCC 29213
[10] = strain DSM 11729, read-out: MIC S. aureus DSM 11729
[11] = strain S. aureus 39, read-out: MIC S. aureus 39
[12] = strain 11A11, read-out: MIC S. pneumoniae 11A11
[13] = strain 82BERG72, read-out: MIC S. pneumoniae 82BERG72
[14] = strain 704CG4B21, read-out: MIC S. pneumoniae 704CG4B21
[15] = strain 3313A6, read-out: MIC S. pneumoniae 3313A6
[16] = strain DSM 20566 (Table 32.8), read-out: MIC S. pneumoniae DSM 20566

MIC [1, 7]	MIC [2, 8]	MIC [2, 9]	MIC [2, 10]	MIC [2, 11]	Plasma Stability 240 min mouse/(rat) [% remain.] [3]	half-life at 10 μM [3]	Plasma Stability 240 min hum [% remain.] [4]	half-life at 10 μM [4]	half-life at 10 μM [5]	Metabolic Stability 60 min hum [% remain.] [5]	Metabolic Stability 60 min mouse/(rat) [% remain.] [6]	half-life at 10 μM [6]	MIC ([2]; strain DSM 46320, read-out: MIC S. aureus DSM 46320)	MIC [1, 12]	MIC [1, 13]	MIC [1, 14]	MIC [1, 15]	MIC [1, 16]	SMILES
8 µg/mL (≈ 16.2 µM)	16 µg/mL (≈ 32.3 µM)	8 to 16 µg/mL (≈ 16.2 to 32.3 µM)	8 to 16 µg/mL (≈ 16.2 to 32.3 µM)	4 µg/mL (≈ 8.09 µM)															CC(C)(C)OC(=O)N[C@H]1C[C@H]2COc3cccc(c3)-c3ccccc3C(=O)NCC[C@@H](N)C(=O)N2C1 [Ex. 2, tert-butyl N-[(12R,16S,18S)-12-amino-8,13-dioxo-20-oxa-9,14-diazatetracyclo[19.3.1.0^2,7.0^14,18]pentacosa-1(25),2,4,6,21,23-hexaen-16-yl]carbamate]
					84 % remain.	> 4 h	90 % remain.	> 4 h	19 min	6 % remain.	19 % remain.	24 min							CC(C)CNC(=O)[C@@H]1CCC(=O)N[C@@H](C)COc2cccc(c2)-c2cccc(c2)C(=O)N1C [Ex. 80, (9S,14S)-N-isobutyl-9,15-dimethyl-11,16-dioxo-7-oxa-10,15-diazatricyclo [15.3.1.1^2,6]docosa-1(21),2(22),3,5,17,19-hexaene-14-carboxamide]
					100 % remain.	> 4 h	88 % remain.	> 4 h	> 60 min	100 % remain.	97 % remain.	> 60 min							C[C@H]1COc2cccc(c2)-c2cccc(c2)C(=O)N(C)[C@H](C(=O)NCCO)CCC(=O)N1 [Ex. 81, (9S,14S)-N-(2-hydroxyethyl)-9,15-dimethyl-11,16-dioxo-7-oxa-10,15-diazatricyclo[15.3.1.1^2,6]docosa-1(21),2(22),3,5,17,19-hexaene-14-carboxamide]
					93 % remain.	> 4 h	85 % remain.	> 4 h	> 60 min	85 % remain.	96 % remain.	> 60 min							C[C@H]1COc2cccc(c2)-c2cccc(c2)C(=O)N(C)[C@H](C(=O)NCC(=O)O)CCC(=O)N1 [Ex. 83, 2-({[(9S,14S)-9,15-dimethyl-11,16-dioxo-7-oxa-10,15-diazatricyclo[15.3.1.1^2,6]docosa-1(21),2(22),3,5,17,19-hexaen-14-yl]carbonyl}amino)acetic acid]
					56 % remain.	> 4 h	99 % remain.	> 4 h	> 60 min	97 % remain.	71 % remain.	> 60 min							C[C@H]1COc2cccc(c2)-c2cccc(c2)C(=O)N(C)[C@H](C(=O)NCCN(C)C)CCC(=O)N1 [Ex. 84, (9S,14S)-N-[2-(dimethylamino)ethyl]-9,15-dimethyl-11,16-dioxo-7-oxa-10,15-diazatricyclo[15.3.1.1^2,6]docosa-1(21),2(22),3,5,17,19-hexaene-14-carboxamide]
					88 % remain.	> 4 h	100 % remain.	> 4 h	> 60 min	100 % remain.	80 % remain.	> 60 min							C[C@H]1COc2cccc(c2)-c2cccc(c2)C(=O)N(C)[C@H](C(=O)NCCCN2CCCC2)CCC(=O)N1 [Ex. 85, (9S,14S)-9,15-dimethyl-11,16-dioxo-N-[3-(1-pyrrolidinyl)propyl]-7-oxa-10,15-diazatricyclo[15.3.1.1^2,6]docosa-1(21),2(22),3,5,17,19-hexaene-14-carboxamide]
					90 % remain.	> 4 h	100 % remain.	> 4 h	27 min	17 % remain.	63 % remain.	60 min							C[C@H]1COc2cccc(c2)-c2cccc(c2)C(=O)N(C)[C@H](C(=O)N2CCOCC2)CCC(=O)N1 [Ex. 87, (9S,14S)-9,15-dimethyl-14-(morpholinocarbonyl)-7-oxa-10,15-diazatricyclo [15.3.1.1^2,6]docosa-1(21),2(22),3,5,17,19-hexaene-11,16-dione]
					76 % remain.	> 4 h	100 % remain.	> 4 h	13 min	8 % remain.	2 % remain.	10 min							C[C@H]1COc2cccc(c2)-c2cccc(c2)C(=O)N(C)[C@H](C(=O)NCc2ccc3ccccc3c2)CCC(=O)N1 [Ex. 89, (9S,14S)-9,15-dimethyl-N-(2-naphthylmethyl)-11,16-dioxo-7-oxa-10,15-diazatricyclo[15.3.1.1^2,6]docosa-1(21),2(22),3,5,17,19-hexaene-14-carboxamide]
> 16 µg/mL	4 µg/mL (≈ 8.07 µM)	2 to 4 µg/mL (≈ 4.04 to 8.07 µM)	2 µg/mL (≈ 4.04 µM)	8 µg/mL (≈ 16.1 µM)									4 µg/mL (≈ 8.07 µM)						CC(C)(C)OC(=O)N[C@@H]1C[C@H]2COc3cccc(c3)-c3cncc(c3)C(=O)NCCNCC(=O)N2C1 [Ex. 91, tert-butyl N-[(9S,11R)-14,20-dioxo-7-oxa-13,16,19,23-tetraazatetracyclo[19.3.1.1^2,6.0^9,13]hexacosa-1(25),2(26),3,5,21,23-hexaen-11-yl]carbamate]
														16 µg/mL (≈ 27.6 µM)	8 µg/mL (≈ 13.8 µM)	16 µg/mL (≈ 27.6 µM)	16 µg/mL (≈ 27.6 µM)	16 µg/mL (≈ 27.6 µM)	N[C@H]1C[C@H]2COc3cc(F)cc(c3)-c3csc(c3)C(=O)N[C@H](C(=O)Nc3ccccc3)COCCCCC(=O)N2C1 [Ex. 247, (8S,18S,20S)-18-amino-25-fluoro-6,15-dioxo-N-phenyl-10,22-dioxa-4-thia-7,16-diazatetracyclo[21.3.1.1^2,5.0^16,20]octacosa-1(27),2,5(28),23,25-pentaene-8-carboxamide]
														8 µg/mL (≈ 13 µM)	2 µg/mL (≈ 3.25 µM)	8 µg/mL (≈ 13 µM)	8 µg/mL (≈ 13 µM)	8 µg/mL (≈ 13 µM)	N[C@H]1C[C@H]2COc3cc(F)cc(c3)-c3csc(c3)C(=O)N[C@H](C(=O)Nc3ccc(Cl)cc3)COCCCCC(=O)N2C1 [Ex. 257, (8S,18S,20S)-18-amino-N-(4-chlorophenyl)-25-fluoro-6,15-dioxo-10,22-dioxa-4-thia-7,16-diazatetracyclo[21.3.1.1^2,5.0^16,20]octacosa-1(27),2,5(28),23,25-pentaene-8-carboxamide]
														16 µg/mL (≈ 26.9 µM)	4 µg/mL (≈ 6.73 µM)	8 µg/mL (≈ 13.5 µM)	8 µg/mL (≈ 13.5 µM)	8 µg/mL (≈ 13.5 µM)	Cc1cccc(NC(=O)[C@@H]2COCCCCC(=O)N3C[C@@H](N)C[C@H]3COc3cc(F)cc(c3)-c3csc(c3)C(=O)N2)c1 [Ex. 259, (8S,18S,20S)-18-amino-25-fluoro-N-(3-methylphenyl)-6,15-dioxo-10,22-dioxa-4-thia-7,16-diazatetracyclo[21.3.1.1^2,5.0^16,20]octacosa-1(27),2,5(28),23,25-pentaene-8-carboxamide]

— patent US10017481B2, “Conformationally constrained, fully synthetic macrocyclic compounds” (POLYPHOR AG, priority 2012, dated 2018)
